What was measured:
Beta-secretase 2 = biological target: T1, Beta-secretase 2 (Homo sapiens, UniProt Q9Y5Z0); assay: (§1) Inhibition Assay: Previously, one of the following compounds discussed below have been studied in memapsin 2 inhibition (Ghosh et al., 2008), which the others are previously unpublished. Given the closely related substrate specificity for memapsin 1 and memapsin 2, the inventors chose to screen these previously identified memapsin 2 inhibitors for lead compounds as memapsin 1 inhibitors. Recombinant memapsin 1 ectodomain was prepared as described by Turner et al. (2002) and assayed using a commercially purchased fluorescent substrate.
T1 sequence (Q9Y5Z0 whole entry): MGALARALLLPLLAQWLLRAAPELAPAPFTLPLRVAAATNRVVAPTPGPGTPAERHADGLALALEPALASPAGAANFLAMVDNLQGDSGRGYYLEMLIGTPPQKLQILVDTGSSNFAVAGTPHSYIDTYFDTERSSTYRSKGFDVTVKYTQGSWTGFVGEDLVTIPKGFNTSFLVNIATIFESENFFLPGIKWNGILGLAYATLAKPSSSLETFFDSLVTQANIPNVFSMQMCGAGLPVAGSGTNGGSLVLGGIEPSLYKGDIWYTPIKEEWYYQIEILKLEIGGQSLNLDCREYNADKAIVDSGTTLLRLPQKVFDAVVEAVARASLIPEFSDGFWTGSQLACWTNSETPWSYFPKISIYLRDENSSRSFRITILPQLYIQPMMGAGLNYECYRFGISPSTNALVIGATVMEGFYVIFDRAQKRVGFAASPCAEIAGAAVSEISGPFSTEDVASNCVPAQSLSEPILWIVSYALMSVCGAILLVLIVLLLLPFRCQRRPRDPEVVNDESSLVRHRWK

Beta-secretase 1 = Beta-secretase 1 (Homo sapiens, UniProt P56817); assay: as §1
Sequence of Beta-secretase 1 (P56817 whole entry): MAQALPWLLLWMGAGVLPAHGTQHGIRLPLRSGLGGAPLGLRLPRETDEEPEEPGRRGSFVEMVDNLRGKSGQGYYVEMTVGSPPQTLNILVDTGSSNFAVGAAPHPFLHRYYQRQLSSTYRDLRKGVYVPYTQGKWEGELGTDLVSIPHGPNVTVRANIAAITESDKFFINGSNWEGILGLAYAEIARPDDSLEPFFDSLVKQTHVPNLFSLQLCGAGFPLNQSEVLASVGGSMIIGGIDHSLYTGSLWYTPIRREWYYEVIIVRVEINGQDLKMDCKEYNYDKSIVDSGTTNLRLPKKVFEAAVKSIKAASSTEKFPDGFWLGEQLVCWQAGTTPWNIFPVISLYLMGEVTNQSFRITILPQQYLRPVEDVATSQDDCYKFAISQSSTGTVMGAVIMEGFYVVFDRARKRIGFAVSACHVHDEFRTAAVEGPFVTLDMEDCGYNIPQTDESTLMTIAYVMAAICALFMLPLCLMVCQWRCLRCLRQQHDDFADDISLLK

SMILES | Ki (Beta-secretase 2) [nM] | IC50 (Beta-secretase 2) [nM] | Ki (Beta-secretase 1) [nM]
CC(C)CN1CCNC(C(O)C(Cc2ccccc2)NC(=O)c2cc(C(=O)NC(C)c3ccccc3)cc(N(C)S(C)(=O)=O)c2)C1 (stereo not drawn) | 6060 | – | –
COc1ccc(C(C(C)O)C(Cc2ccccc2)NC(=O)c2cc(C(=O)NC(C)c3ccccc3)cc(N(C)S(C)(=O)=O)c2)cc1 (stereo not drawn) | – | 700 | –
CCc1cn2c3c(cc(C(=O)N[C@@H](Cc4ccccc4)C(O)CNCc4cccc(C(F)(F)F)c4)cc13)N(C)S(=O)(=O)C1(CC1)C2 (stereo partly drawn) | 521 | – | –
Cc1ncsc1CN(C(=O)CCC(C1CCCCC1)N1Cc2cc(Oc3ccccc3)ccc2N=C1N)C1CCCCC1 (stereo not drawn) | 53 | – | –
CCc1cn2c3c(cc(C(=O)N[C@@H](Cc4ccccc4)[C@H](O)CNC(COC)c4cccc(C(F)(F)F)c4)cc13)N(C)S(=O)(=O)C1(CC1)C2 (stereo partly drawn) | 199 | – | –
CC(C)CNC(=O)C(NCC(O)C(Cc1ccccc1)NC(=O)c1cccc(C(=O)N(C)C(C)c2ccccc2)c1)C(C)O (stereo not drawn) | 63.1 | – | 5810
COCC(NC(=O)OCC(C1CCCCC1)N1Cc2cc(Oc3ccccc3)ccc2N=C1N)C(=O)N(C)C (stereo not drawn) | 350 | – | –
CCCC(O)C(NCC(O)C(Cc1ccccc1)NC(=O)c1cc(C)cc(C(=O)N(C)C(C)c2ccccc2)c1)C(=O)NCC(C)C (stereo not drawn) | 0.0014 | – | 563
CCCC(O)C(NCC(O)C(Cc1ccccc1)NC(=O)c1cc(C)cc(C(=O)N2CCCC2OC)c1)C(=O)NCC(C)C (stereo not drawn) | 19.7 | – | 6.56
COc1cccc(C(NCC(O)C(Cc2ccccc2)NC(=O)c2cc(C(=O)NC(C)c3ccccc3)cc(N(C)S(C)(=O)=O)c2)C(C)O)c1 (stereo not drawn) | – | 350 | –
CCCC(O)C(NCC(O)C(Cc1ccccc1)NC(=O)c1cccc(C(=O)N2CCCC2OC)c1)C(=O)NCC(C)C (stereo not drawn) | 76.6 | – | 267
CCCC(O)C(NCC(O)C(Cc1ccccc1)NC(=O)c1cccc(C(=O)N(C)C(C)c2ccccc2)c1)C(=O)NCC(C)C (stereo not drawn) | 0.02 | – | 5250
CSC[C@H](NC(=O)C1NOC2OCCC21)C(=O)NC(CC(C)C)[C@@H](O)CC(C)C(=O)NC(C(=O)N(C)C)C(C)C (stereo partly drawn) | 46 | – | –
CCCC(O)N(NC[C@H](Cc1ccccc1)NC(=O)c1cc2c3c(c1)c(CC)cn3CC1(CC1)S(=O)(=O)N2C)C(=O)NC(C)C (stereo partly drawn) | 30 | – | –
Cc1cc(C(=O)NC(Cc2ccccc2)C(O)CNC(C(=O)NCC(C)C)C(C)O)cc(C(=O)N(C)C(C)c2ccccc2)c1 (stereo not drawn) | 1 | – | 1660
CC(C)CC(NC(=O)[C@H](CS(C)(=O)=O)NC(=O)C1NOC2OCCC21)[C@@H](O)CC(C)C(=O)NC(C(=O)N(C)C)C(C)C (stereo partly drawn) | 53 | – | –
NC1=Nc2ccc(Oc3ccccc3)cc2CN1C(CCC(=O)N(CC1CCC(=O)N1)C1CCCCC1)C1CCCCC1 (stereo not drawn) | 48 | – | –
Cc1oncc1CN(C(=O)CCC(C1CCCCC1)N1Cc2cc(Oc3ccccc3)ccc2N=C1N)C1CCCCC1 (stereo not drawn) | 70 | – | –
CCCC(O)N(NC[C@H](Cc1ccccc1)NC(=O)c1cc2c3c(c1)c(CC)cn3CC1(CC1)S(=O)(=O)N2C)C(=O)NCC(C)C (stereo partly drawn) | 11 | – | –
CC(C)CNC(=O)C(NCC(O)C(Cc1ccccc1)NC(=O)c1cc(C(=O)NC(C)c2ccccc2)cc(N(C)S(C)(=O)=O)c1)C(C)O (stereo not drawn) | 37 | – | –
CC(C)CNC(=O)C(NCC(O)C(Cc1ccccc1)NC(=O)c1cc(C(=O)NC(C)c2ccc(I)cc2)cc(N(C)S(C)(=O)=O)c1)C(C)O (stereo not drawn) | 89 | – | –
CC(CN1Cc2cc(Oc3ccccc3)ccc2N=C1N)C(=O)NCCC(C)(C)C (stereo not drawn) | – | 500 | –

— ChEMBL document CHEMBL3638586, “Inhibition of memapsin 1 cleavage in the treatment of diabetes” (2015)
